Experimental data taken from publication PMC10331583, “Control of fibrosis with enhanced safety via asymmetric inhibition of prolyl‐tRNA synthetase 1” (EMBO Molecular Medicine, 2023).
Substitutions are numbered along the chain they refer to. “And” between values parts separate entries of the source, which are not always exact repeats. Identical values can stand only once. “Also recorded” adds a separate entry of the source.

Experiments:
[1] = target: T1, PARS1 F1097A/E1123A/R1152L (FA/EA/RL) mutant (Homo sapiens, UniProt P07814, E1123A/F1097A/R1152L); test: Microscale thermophoresis (MST), PARS1 mutant; type: binding; conditions: for Fraction bound: single replicates
T1 construct: His‐PARS1 (1001–1,512 aa); made in house; host or cells: Escherichia coli
T1 sequence (P07814 1001-1512 F1097A/E1123A/R1152L): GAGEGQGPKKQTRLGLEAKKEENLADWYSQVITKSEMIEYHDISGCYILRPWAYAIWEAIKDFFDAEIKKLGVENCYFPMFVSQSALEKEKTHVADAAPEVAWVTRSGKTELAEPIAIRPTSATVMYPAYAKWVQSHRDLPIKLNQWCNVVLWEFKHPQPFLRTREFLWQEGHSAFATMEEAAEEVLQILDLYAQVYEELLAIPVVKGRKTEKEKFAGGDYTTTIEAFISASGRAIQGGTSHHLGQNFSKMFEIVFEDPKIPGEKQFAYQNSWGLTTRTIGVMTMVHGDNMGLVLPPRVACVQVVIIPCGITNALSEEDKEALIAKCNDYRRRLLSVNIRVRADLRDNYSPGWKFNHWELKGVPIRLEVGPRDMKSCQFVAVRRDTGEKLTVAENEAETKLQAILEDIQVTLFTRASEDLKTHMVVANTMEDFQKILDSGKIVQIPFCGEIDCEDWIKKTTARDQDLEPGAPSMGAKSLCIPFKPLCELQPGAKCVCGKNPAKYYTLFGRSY

phosphorylation of SMAD2 = test: Phosphorylation of SMAD2 (TGF‐β pathway), immunoblot; type: cell-based, human; conditions: 15 h; for Relative ratio of p-SMAD2/SMAD2, average / Relative ratio of p-SMAD2/SMAD2: + TGF-β; for Relative ratio of p-SMAD2/SMAD2: single experiments
Experimental: The levels of proteins were determined by immunoblot assay. […] The lowest concentration at which protein levels started to decrease was normalized by IC50 values for collagen level and used as the y‐axis value. […] The slope and R^2 value were calculated using GraphPad Prism 7.0. […] The activation of the TGF‐β pathway was determined by monitoring the phosphorylation of SMAD2. Immunoblot images are representative of three biologically independent experiments. • The band intensities of the immunoblot images in (C) were quantified using ImageJ (n = 3; One‐way ANOVA; *P < 0.05, **P < 0.01, ***P < 0.001; mean ± SEM). Source data are available online for this figure.

PARS1 = target: T2, PARS1 (Homo sapiens, UniProt P07814); test: In vitro prolylation assay; type: biochemical
T2 construct: His‐PARS1 (1001–1,512 aa); His; made in house; host or cells: Escherichia coli
T2 sequence (P07814 1001-1512 limits assumed): T1 sequence (P07814 1001-1512 F1097A/E1123A/R1152L) with A97F, A123E, L152R
Experimental: The enzyme reaction was initiated by the addition of 100 nM purified His‐PARS1 (1001–1,512 aa). After 5 min, the reaction mixture was quenched on Whatman filter paper presoaked with 5% trichloroacetic acid (TCA). The filter papers were washed three times in 5% TCA for 10 min at 4°C and once in 100% ethanol for 10 min. The filter papers were dried, and radioactivity was quantified using liquid scintillation counter (LSC).
After 1 h, the reaction mixture was quenched on Whatman filter paper presoaked with 5% TCA. The filter papers were washed three times in 5% TCA for 10 min at 4°C and once in 100% ethanol for 10 min. The filter papers were dried, and radioactivity was quantified using LSC.

His‐PARS1 = target: T3, His‐PARS1 (Homo sapiens, UniProt P07814); test: Surface plasmon resonance (SPR); type: binding
T3 construct: His‐PARS1 (1001–1,512 aa); made in house; host or cells: Escherichia coli
T3 sequence (P07814 1001-1512 limits assumed): T1 sequence (P07814 1001-1512 F1097A/E1123A/R1152L) with A97F, A123E, L152R

[2] = system: WI‐26 VA4 cells stably expressing PARS1 FA/EA/RL mutant; test: Cytotoxicity assay in cells stably expressing PARS1 mutant; conditions: WI-26 VA4 Flag-PARS1 FA/EA/RL

With O[C@H]1CCCN[C@@H]1CCCn1cnc2c(Cl)c(Cl)ccc21 [DWN12088] the “Fraction bound, average” value ([1]; Dose 30.5176 nM) was -0.2196, the Fraction bound ([1]; Dose 30.5176 nM) was -0.0531 and -0.3613 and -0.2444 and the “Fraction bound, average” value ([1]; Dose 61.0352 nM) was -0.1437. For the same molecule, the Fraction bound ([1]; Dose 61.0352 nM) was -0.0707 and -0.1506 and -0.2099, the “Fraction bound, average” value ([1]; Dose 122.07 nM) was 0.0563 and the Fraction bound ([1]; Dose 122.07 nM) was 0.1029 and 0.0530 and 0.0131. For the same molecule, the “Fraction bound, average” value ([1]; Dose 244.141 nM) was 0.2244, the Fraction bound ([1]; Dose 244.141 nM) was 0.3322 and 0.1837 and 0.1572 and the “Fraction bound, average” value ([1]; Dose 488.281 nM) was -0.0768. For the same molecule, the Fraction bound ([1]; Dose 488.281 nM) was -0.1204 and -0.1742 and 0.0641, the “Fraction bound, average” value ([1]; Dose 976.562 nM) was -0.0355 and the Fraction bound ([1]; Dose 976.562 nM) was -0.2804 and 0.0014 and 0.1724. The “Fraction bound, average” value ([1]; Dose 1953.12 nM) was 0.1140, the Fraction bound ([1]; Dose 1953.12 nM) was 0.1616 and 0.0279 and 0.1524 and the “Fraction bound, average” value ([1]; Dose 3906.25 nM) was 0.1368. For the same molecule, the Fraction bound ([1]; Dose 3906.25 nM) was 8.74e-5 and 0.2618 and 0.1487, the “Fraction bound, average” value ([1]; Dose 7812.5 nM) was -0.0582 and the Fraction bound ([1]; Dose 7812.5 nM) was -0.2477 and -0.0355 and 0.1087. For the same molecule, the “Fraction bound, average” value ([1]; Dose 15625 nM) was 0.2874, the Fraction bound ([1]; Dose 15625 nM) was 0.1991 and 0.1856 and 0.4774 and the “Fraction bound, average” value ([1]; Dose 31250 nM) was 0.2894. The Fraction bound ([1]; Dose 31250 nM) was 0.2431 and 0.4002 and 0.2248, the “Fraction bound, average” value ([1]; Dose 62500 nM) was 0.2591 and the Fraction bound ([1]; Dose 62500 nM) was 0.5108 and 0.3402 and -0.0738. The “Fraction bound, average” value ([1]; Dose 125000 nM) was 0.4857, the Fraction bound ([1]; Dose 125000 nM) was 0.4645 and 0.6139 and 0.3786 and the “Fraction bound, average” value ([1]; Dose 250000 nM) was 0.6790. The Fraction bound ([1]; Dose 250000 nM) was 0.6147 and 0.6365 and 0.7858, the “Fraction bound, average” value ([1]; Dose 500000 nM) was 0.8538 and the Fraction bound ([1]; Dose 500000 nM) was 0.9212 and 0.7677 and 0.8725. For the same molecule, the “Fraction bound, average” value ([1]; Dose 1000000 nM) was 0.8907, the Fraction bound ([1]; Dose 1000000 nM) was 0.9649 and 0.9924 and 0.7150 and the Kd ([1]; Kd (Fit Results), His-PARS1 FA/EA/RL, doses of the sheet in nM) was 114000 nM. The Kd ([1]; Kd, MT (FA/EA/RL), 5 mM ATP, mean ± SD, unit inferred) was 114000 ± 57400 nM, the “Relative ratio of p-SMAD2/SMAD2, average” value (phosphorylation of SMAD2; 0.2 μM) was 0.76 and the “Relative ratio of p-SMAD2/SMAD2” value (phosphorylation of SMAD2; 0.2 μM) was 0.61 and 0.94 and 0.72. For the same molecule, the “Relative ratio of p-SMAD2/SMAD2, average” value (phosphorylation of SMAD2; 0.6 μM) was 0.75, the “Relative ratio of p-SMAD2/SMAD2” value (phosphorylation of SMAD2; 0.6 μM) was 0.65 and 0.71 and 0.87 and the “Relative ratio of p-SMAD2/SMAD2, average” value (phosphorylation of SMAD2; 2 μM) was 0.70. The “Relative ratio of p-SMAD2/SMAD2” value (phosphorylation of SMAD2; 2 μM) was 0.48 and 0.69 and 0.92, the “Relative ratio of p-SMAD2/SMAD2, average” value (phosphorylation of SMAD2; 6 μM) was 0.78 and the “Relative ratio of p-SMAD2/SMAD2” value (phosphorylation of SMAD2; 6 μM) was 0.66 and 0.77 and 0.91. The “Relative ratio of p-SMAD2/SMAD2, average” value (phosphorylation of SMAD2; 20 μM) was 0.41, the “Relative ratio of p-SMAD2/SMAD2, average” value (phosphorylation of SMAD2; 60 μM) was 0.16 and the SMAD2 phosphorylation (phosphorylation of SMAD2; TGF‐β 2 ng/ml) was “reduced SMAD2 phosphorylation”. For the same molecule, the IC50 (PARS1; IC50, 1 μM Pro, 5 mM ATP) was 0.0761 µM, the IC50 (PARS1; IC50, 10 μM Pro, 5 mM ATP) was 0.397 µM and the IC50 (PARS1; IC50, 100 μM Pro, 2.5 mM ATP) was 5.94 µM. The IC50 (PARS1; IC50, 100 μM Pro, 5 mM ATP) was 6.46 µM, the IC50 (PARS1; IC50, 100 μM Pro, 10 mM ATP) was 3 µM and the “mode of PARS1 inhibition” value (PARS1; IC50 at different proline and ATP concentrations) was “proline‐competitive and ATP‐uncompetitive; also recorded: competitive inhibitor for proline, and a mixed or uncompetitive inhibitor for ATP”. The Kd (His‐PARS1; KD, + ATP (1 mM)) was 31.1 µM, the Kd (His‐PARS1; KD, - ATP) was > 300 µM and the Kd (His‐PARS1; Kd, SPR, in the presence of ATP) was 31 µM. For the same molecule, the “Cytotoxicity, % of control (single replicates, Experiment #1-#4)” value (from here on “Cytotoxicity, % of control”) ([2]; 10 nM, 0.01 µM) was 127.65 % of control and 116.09 % of control and 111.66 % of control and 110.83 % of control and 101.75 % of control and 99.44 % of control and 110.49 % of control and 101.49 % of control, the “Cytotoxicity, % of control” value ([2]; 30 nM, 0.03 µM) was 126.96 % of control and 104.11 % of control and 114.08 % of control and 105.16 % of control and 106.38 % of control and 115.03 % of control and 93.72 % of control and 92.87 % of control and the “Cytotoxicity, % of control” value ([2]; 100 nM, 0.1 µM) was 127.60 % of control and 108.47 % of control and 113.70 % of control and 109.71 % of control and 111.06 % of control and 113.53 % of control and 98.60 % of control and 94.80 % of control. For the same molecule, the “Cytotoxicity, % of control” value ([2]; 300 nM, 0.3 µM) was 132.76 % of control and 113.23 % of control and 105.15 % of control and 116.43 % of control and 104.37 % of control and 100.43 % of control and 94.90 % of control and 90.64 % of control, the “Cytotoxicity, % of control” value ([2]; 1000 nM, 1 µM) was 112.40 % of control and 100.20 % of control and 107.27 % of control and 121.00 % of control and 132.94 % of control and 130.17 % of control and 95.86 % of control and 86.64 % of control and the “Cytotoxicity, % of control” value ([2]; 3000 nM, 3 µM) was 71.51 % of control and 74.54 % of control and 81.32 % of control and 80.03 % of control and 89.57 % of control and 88.20 % of control and 83.52 % of control. For the same molecule, the “Cytotoxicity, % of control” value ([2]; 10000 nM, 10 µM) was 63.68 % of control and 53.80 % of control and 76.80 % of control and 69.72 % of control and 64.84 % of control and 73.82 % of control and 81.37 % of control and 66.19 % of control, the “Cytotoxicity, % of control” value ([2]; 30000 nM, 30 µM) was 25.76 % of control and 18.61 % of control and 17.42 % of control and 17.01 % of control and 19.68 % of control and 18.20 % of control and 14.25 % of control and the “Cytotoxicity, % of control” value ([2]; 100000 nM, 100 µM) was 21.16 % of control and 22.59 % of control and 20.38 % of control and 17.48 % of control and 18.26 % of control and 18.73 % of control and 19.25 % of control. For the same molecule, the “Cytotoxicity, % of control” value ([2]; 300000 nM, 300 µM) was 1.23 % of control and 1.09 % of control and 1.22 % of control and 0.52 % of control and 1.28 % of control and 1.77 % of control and 1.38 % of control and 0.29 % of control, the “Cytotoxicity, % of control” value ([2]; 1000000 nM, 1000 µM) was 0.10 % of control and -0.10 % of control and 0.29 % of control and -0.29 % of control and 0.16 % of control and -0.16 % of control and 0.22 % of control and -0.22 % of control and the “Cytotoxicity HillSlope (best-fit value)” value ([2]; log(inhibitor) vs. response, variable slope (four parameters)) was -1.118. For the same molecule, the “Cytotoxicity LogIC50 (best-fit value)” value ([2]; log(inhibitor) vs. response, variable slope (four parameters), concentration in nM) was 4.071.
